This assay has as its target T1, OC15 (mOrange2-CBM15 fusion probe) (Cellvibrio japonicus, UniProt Q59675).
T1 construct: gene xyn10C; CBM15 domain of xylanase Xyn10C, C-terminal; N-terminal His6-mOrange2 reporter, tags kept; single Gly linker; synthetic gene, pET11a, E. coli BL21-Gold(DE3)pLysS; primers imply CBM15 begins VAAS and ends at stop after EAYSAN
Nature of the assay: isothermal titration calorimetry. The format is binding. Conditions: 20 mM Tris-HCl pH 7.5, 20 mM NaCl, 5 mM CaCl2, 25 °C. The source says: isothermal titration calorimetry on OC15 (mOrange2-CBM15 fusion probe)

Molecules are shown by their SMILES. Read-outs that look alike come from different tables or passages of the source.

T1 sequence (Q59675 86-247): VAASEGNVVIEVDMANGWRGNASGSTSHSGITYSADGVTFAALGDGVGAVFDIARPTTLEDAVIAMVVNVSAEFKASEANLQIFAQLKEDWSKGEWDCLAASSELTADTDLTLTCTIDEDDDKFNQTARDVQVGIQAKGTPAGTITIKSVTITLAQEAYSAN

On to `OC1OC[C@@H](O[C@@H]2OC[C@@H](O[C@@H]3OC[C@@H](O[C@@H]4OC[C@@H](O[C@@H]5OC[C@@H](O[C@@H]6OC[C@@H](O)[C@H](O)[C@H]6O)[C@H](O)[C@H]5O)[C@H](O)[C@H]4O)[C@H](O)[C@H]3O)[C@H](O)[C@H]2O)[C@H](O)[C@H]1O` (stereo partly shown) [xylohexaose], for which the Kd reads like this: (read-out: K a × 10^3 (M^-1) (converted)) 29.4 µM; (read-out: K d) 29.4 µM.

Regarding `OC[C@H]1O[C@@H](O[C@H]2[C@H](O)[C@@H](O)[C@H](O[C@H]3[C@H](O)[C@@H](O)[C@H](O[C@H]4[C@H](O)[C@@H](O)[C@H](O[C@H]5[C@H](O)[C@@H](O)[C@H](O[C@H]6[C@H](O)[C@@H](O)C(O)O[C@@H]6CO)O[C@@H]5CO)O[C@@H]4CO)O[C@@H]3CO)O[C@@H]2CO)[C@H](O)[C@@H](O)[C@@H]1O` (stereo partly shown) [cellohexaose], the Kd is, setting by setting: (cellohexaose of 90 % purity, read-out: K a × 10^3 (M^-1) (converted)) 476 µM; (cellohexaose of 90 % purity, read-out: K d) 479 µM.

Source of the values: paper PMC4807533, “Specific tracking of xylan using fluorescent-tagged carbohydrate-binding module 15 as molecular probe” (Biotechnology for Biofuels, 2016).
